Measured values published in ChEMBL document CHEMBL1122888, “22-Hydroxycholesterol derivatives as HMG CoA reductase suppressors and serum cholesterol lowering agents” (1985).

Tests used:
[1] = biological target: T1, 3-hydroxy-3-methylglutaryl-coenzyme A reductase (Homo sapiens) (UniProt P04035); test: Evaluated in human fibroblast tissue culture assays for suppression of HMG-CoA reductase at concentration of 1 ug/mL.
T1 sequence (whole entry): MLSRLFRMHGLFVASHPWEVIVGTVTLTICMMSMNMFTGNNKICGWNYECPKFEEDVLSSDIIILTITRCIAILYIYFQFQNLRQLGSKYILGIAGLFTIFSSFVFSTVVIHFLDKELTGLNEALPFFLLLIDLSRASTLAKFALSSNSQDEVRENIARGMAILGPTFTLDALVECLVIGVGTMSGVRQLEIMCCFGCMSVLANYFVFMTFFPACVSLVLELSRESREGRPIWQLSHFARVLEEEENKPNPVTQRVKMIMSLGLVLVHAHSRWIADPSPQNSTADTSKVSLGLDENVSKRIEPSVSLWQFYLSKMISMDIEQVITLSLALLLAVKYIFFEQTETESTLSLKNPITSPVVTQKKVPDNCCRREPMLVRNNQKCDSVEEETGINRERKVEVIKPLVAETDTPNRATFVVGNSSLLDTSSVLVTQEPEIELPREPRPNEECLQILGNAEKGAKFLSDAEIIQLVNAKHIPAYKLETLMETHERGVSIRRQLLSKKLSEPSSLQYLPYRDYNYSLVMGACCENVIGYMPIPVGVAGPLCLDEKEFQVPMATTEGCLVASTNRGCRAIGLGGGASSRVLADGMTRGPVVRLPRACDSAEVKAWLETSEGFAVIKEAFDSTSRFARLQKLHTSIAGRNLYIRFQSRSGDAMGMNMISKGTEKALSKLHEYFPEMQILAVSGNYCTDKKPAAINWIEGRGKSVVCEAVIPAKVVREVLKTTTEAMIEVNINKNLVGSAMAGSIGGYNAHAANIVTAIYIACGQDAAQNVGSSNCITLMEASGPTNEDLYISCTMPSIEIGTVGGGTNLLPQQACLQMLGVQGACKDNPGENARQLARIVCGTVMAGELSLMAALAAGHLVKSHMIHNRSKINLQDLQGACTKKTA

[2] = biological target: T1, 3-hydroxy-3-methylglutaryl-coenzyme A reductase (Homo sapiens); test: Evaluated for serum cholesterol levels in the 14 day treated rhesus monkeys at dose (10 mg/kg/day, ig) over a 2-week period; type: functional, organism-based; details: Cercopithecidae; target entry is the homologue from another species
Monkey [3] = test: Evaluated for serum cholesterol VLDL levels in the 14 day treated monkey at dose (10 mg/kg/day, ig) over a 2-week period; type: functional, Cercopithecidae
[4] = system: HMG-CoA reductase (Rattus norvegicus); test: Evaluated for the percent suppression of elevated liver HMG-CoA reductase in Diazoesterol treated rats
Monkey [5] = test: Evaluated for serum lipoprotein LDL levels in the 14 day treated monkey at dose (10 mg/kg/day, ig) over a 2-week period; type: functional, Cercopithecidae; design: reference not given here
Rattus norvegicus [6] = species on record: Rattus norvegicus; test: Minimum effective dose necessary to produce >=25% decrease of elevated liver HMG CoA reductage levels; type: functional; details: read-out: MED
Monkey [7] = test: Evaluated for serum lipoprotein HDL levels in the 14 day treated rhesus monkey at dose (10 mg/kg/day, ig) over a 2-week period; type: functional, Cercopithecidae; design: reference not given here
[8] = biological target: T1, 3-hydroxy-3-methylglutaryl-coenzyme A reductase (Homo sapiens); test: Evaluated for serum cholesterol levels in the 14 day treated primate (male rhesus monkeys) at dose (10 mg/kg/day, ig) over a 2-week period; type: functional, organism-based; details: Cercopithecidae; target entry is the homologue from another species
Rattus norvegicus [9] = species on record: Rattus norvegicus; test: Minimum effective dose necessary to produce >=25% decrease of elevated liver HMG CoA reductage levels in diazasterol treated rats; type: functional; details: read-out: MED

SMILES: C[C@H](C(O)CCC(C)(C)F)C1CCC2C3CC=C4CC(O)CCC4(C)C3CCC21C (stereo partly drawn)
- inhibition [1]: > 95%
- cholesterol level [2]: 150 mg/dL
- cholesterol level (Monkey [3]): 8 mg/dL
- Suppression [4]: 26%
- Lipoprotein level (Monkey [5]): 25%
- minimal effective dose (Rattus norvegicus [6]): 0.5 mg/kg
- Lipoprotein level (Monkey [7]): 61%

SMILES: C[C@H](C(O)CCC(C)(C)C)C1CCC2C3CC=C4CC(O)CCC4(C)C3CCC21C (stereo partly drawn)
- inhibition [1]: 95%
- cholesterol level [8]: 167 mg/dL
- cholesterol level (Monkey [3]): 6 mg/dL
- Suppression [4]: 39%
- Lipoprotein level (Monkey [5]): 25%
- Lipoprotein level (Monkey [7]): 66%
- minimal effective dose (Rattus norvegicus [9]): 0.5 mg/kg

SMILES: C[C@H](C(O)CCC1CC1)C1CCC2C3CC=C4CC(O)CCC4(C)C3CCC21C (stereo partly drawn)
- inhibition [1]: > 95%
- cholesterol level [2]: 179 mg/dL
- cholesterol level (Monkey [3]): 4 mg/dL
- Suppression [4]: 30%
- Lipoprotein level (Monkey [5]): 23%
- minimal effective dose (Rattus norvegicus [6]): 0.5 mg/kg
- Lipoprotein level (Monkey [7]): 68%

SMILES: C[C@H](C(O)CCC(C)(C)Cl)C1CCC2C3CC=C4CC(O)CCC4(C)C3CCC21C (stereo partly drawn)
- cholesterol level [2]: 168 mg/dL
- cholesterol level (Monkey [3]): 4 mg/dL
- Suppression [4]: 28%
- Lipoprotein level (Monkey [5]): 22%
- minimal effective dose (Rattus norvegicus [6]): 0.2 mg/kg
- Lipoprotein level (Monkey [7]): 70%

SMILES: CC(C)CCC(O)[C@@H](C)[C@H]1CC[C@H]2[C@@H]3CC=C4C[C@@H](O)CC[C@]4(C)[C@H]3CC[C@]12C (stereo partly drawn)
- minimal effective dose (Rattus norvegicus [6]): > 30 mg/kg
